Assay results reported in US20230365582A1, “NOVEL COMPOUNDS HAVING INHIBITORY ACTIVITY ON PROSTAGLANDIN E2 RECEPTOR AND USES THEREOF” (KANAPH THERAPEUTICS INC., priority 2020, published 2023).

Assays:
hEP2 = molecular target: T1, hEP2 (Homo sapiens, UniProt P43116); test: hEP2 cAMP assay; format: cell-based; details: HEK293 cells overexpressing hEP2; PGE2 agonist 400 pM; graded per Table 21; read-out: IC50 (nM) EP2 cAMP
T1 construct: expressed in transfected cells; host or cells: HEK293
Experimental: (§1) HEK293 cells overexpressing hEP2 were cultured in growth medium (GM: MEM (Gibco™, 11095080)/10% HI FBS (Gibco™, 10082147)/1% penicillin/streptomycin). Before the experiment, the growth medium was removed, and starvation medium (HBSS (Gibco™, 14025076)/10% GM) was added. Thereafter, the cells were incubated for 4 hours. The HEK293 cells harboring hEP2 were detached from the culture dish with a non-enzymatic cell dissociation buffer (Gibco™, 15040066). The cells were resuspended in assay buffer (AB: HBSS, 0.1% BSA stabilizer, 0.5 mM IBMX, 5 mM HEPES).
(§2) 1,000 cells in 5 μL of AB were seeded per well in a 384 well plate (Corning™, 3570), and stock solutions of test compounds were prepared at a concentration of 1 mM in DMSO and serially diluted in DMSO to the concentration required for the inhibition dose response curve (test concentration range of 10 μM-0.001 nM). PGE2 (Sigma, P0409, stock solution: 1 μM) was used as an agonist at a final concentration of 400 pM corresponding to EC50-80. 2.5 μL of the diluted compound and 2.5 μL of PGE2 (400 pM final concentration) were transferred to the assay plate, and then the plate was incubated at room temperature for 12 minutes.
(§3) 5 μL of each donor (Eu-cAMP tracer) and acceptor (ULight-anti-cAMP) was added, and the plate was incubated in the dark for 1 hour at room temperature, and then a Varioskan LUX multimode microplate reader was used to obtain the results (excitation: 334 nm, emission: 615 and 665 nm). The resulting FRET fluorescence value (665 nm/615 nm*10000) was converted and then calculated as a percentage of cAMP relative to the DMSO control value. IC50 values and curves were generated with GraphPad Prism software using log (inhibitor) versus response-variable slopes (4 parameters), and the median of multiple experiments was taken as the experiment result.

hEP4 = molecular target: T2, hEP4 (Homo sapiens, UniProt P35408); test: hEP4 cAMP assay; format: cell-based; details: HEK293 cells overexpressing hEP4; PGE2 agonist 20 nM; graded per Table 21; read-out: IC50 (nM) EP4 cAMP
T2 construct: expressed in transfected cells; host or cells: HEK293
Experimental: as §1, with “overexpressing hEP4” for “overexpressing hEP2”, “(HBSS (Gibco™” for “(HBSS (Gibco™,”, “hours.” for “hours. The”, “harboring hEP4” for “harboring hEP2”
as §2, with “plate (Corning®,” for “plate (Corning™,”, “solution: 100” for “solution: 1”, “of 20 nM” for “of 400 pM”, “PGE2 (20 nM” for “PGE2 (400 pM”, “for 18.5” for “for 12”
as §3, with “compared” for “relative”, “slope” for “slopes”

T1 sequence (P43116 whole entry): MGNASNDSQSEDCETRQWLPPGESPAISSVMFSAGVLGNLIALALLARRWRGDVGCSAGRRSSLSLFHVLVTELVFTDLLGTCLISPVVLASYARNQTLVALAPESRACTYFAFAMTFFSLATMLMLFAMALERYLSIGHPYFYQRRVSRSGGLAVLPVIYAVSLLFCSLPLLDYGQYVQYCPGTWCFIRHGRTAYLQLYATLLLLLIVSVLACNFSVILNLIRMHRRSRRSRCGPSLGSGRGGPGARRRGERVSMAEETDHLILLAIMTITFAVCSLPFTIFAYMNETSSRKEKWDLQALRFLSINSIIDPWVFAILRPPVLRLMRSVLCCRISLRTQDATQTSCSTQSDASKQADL
T2 sequence (P35408 whole entry): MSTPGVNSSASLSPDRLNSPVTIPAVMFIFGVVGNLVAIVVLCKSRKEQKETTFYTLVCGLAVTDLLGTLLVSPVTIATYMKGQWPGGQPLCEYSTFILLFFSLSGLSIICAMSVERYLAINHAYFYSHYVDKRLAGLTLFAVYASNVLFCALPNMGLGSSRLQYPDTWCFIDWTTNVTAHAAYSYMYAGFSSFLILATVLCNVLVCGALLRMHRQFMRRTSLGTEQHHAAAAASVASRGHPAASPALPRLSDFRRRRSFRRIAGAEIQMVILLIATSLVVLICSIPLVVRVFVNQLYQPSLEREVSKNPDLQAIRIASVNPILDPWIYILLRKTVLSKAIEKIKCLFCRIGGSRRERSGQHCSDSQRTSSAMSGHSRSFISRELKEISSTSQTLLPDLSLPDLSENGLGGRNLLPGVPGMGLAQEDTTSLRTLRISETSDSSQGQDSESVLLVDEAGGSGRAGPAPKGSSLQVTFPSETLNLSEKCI

| Compound | IC50 (hEP2) [nM] | IC50 (hEP4) [nM] |
| --- | --- | --- |
| COc1cc(F)cc(-c2ccc(Cc3c(C)sc(C)c3C(=O)NC3CC4(C3)CC(C(=O)O)C4)cc2)c1 (centres unmarked) [Example 34, 6-(4-((3′-fluoro-5′-methoxy-[1,1′-biphenyl]-4-yl)methyl)-2,5-dimethylthiophene-3-carboxamido)spiro[3.3]heptane-2-carboxylic acid] | 500 to 5000 | < 500 |
| Cc1sc(C)c(C(=O)NC2CC3(C2)CC(C(=O)O)C3)c1Cc1ccc(-c2cc(F)cc(C(N)=O)c2)cc1 (centres unmarked) [Example 57, 6-(4-((3′-carbamoyl-5′-fluoro-[1,1′-biphenyl]-4-yl)methyl)-2,5-dimethylthiophene-3-carboxamido)spiro[3.3]heptane-2-carboxylic acid] | 500 to 5000 | < 500 |
| Cc1sc(C)c(C(=O)NC2CC3(C2)CC(C(=O)O)C3)c1Cc1ccc(-c2cc(F)cc(OC(C)C)c2)cc1 (centres unmarked) [Example 46, 6-(4-((3′-fluoro-5′-isopropoxy-[1,1′-biphenyl]-4-yl)methyl)-2,5-dimethylthiophene-3-carboxamido)spiro[3.3]heptane-2-carboxylic acid] | 500 to 5000 | 500 to 5000 |
| O=C(NC1CC2(C1)CC(C(=O)O)C2)c1csc2ccn(Cc3ccc(-c4ccccc4)cc3)c12 (centres unmarked) [Example 79, 6-(4-([1,1′-biphenyl]-4-ylmethyl)-4H-thieno[3,2-b]pyrrole-3-carboxamido)spiro[3.3]heptane-2-carboxylic acid] | < 500 | < 500 |
| CCOc1cc(F)cc(-c2ccc(Cc3c(C)sc(C)c3C(=O)NC3CC4(C3)CC(C(=O)O)C4)cc2)c1 (centres unmarked) [Example 45, 6-(4-((3′-ethoxy-5′-fluoro-[1,1′-biphenyl]-4-yl)methyl)-2,5-dimethylthiophene-3-carboxamido)spiro[3.3]heptane-2-carboxylic acid] | 500 to 5000 | < 500 |
| Cc1sc2ccn(Cc3ccc(-c4ccccc4)cc3)c2c1C(=O)N[C@H]1CC2(C1)C[C@H](C(=O)O)C2 (single isomer, unassigned) [Example 80b] |  | < 500 |
| Cc1sc(C)c(C(=O)NC2CC3(C2)CC(C(=O)O)C3)c1Cc1ccc(-c2ccoc2)cc1 (centres unmarked) [Example 33, 6-(4-(4-(furan-3-yl)benzyl)-2,5-dimethylthiophene-3-carboxamido)spiro[3.3]heptane-2-carboxylic acid] | 500 to 5000 | < 500 |
| Cc1sc(C)c(C(=O)NC2CC3(C2)CC(C(=O)O)C3)c1Cc1ccc(-c2cnn(C)c2)cc1 (centres unmarked) [Example 39, 6-(2,5-dimethyl-4-(4-(1-methyl-1H-pyrazol-4-yl)benzyl)thiophene-3-carboxamido)spiro[3.3]heptane-2-carboxylic acid] | > 10000 | 500 to 5000 |
| O=C(NC1CC2(C1)CC(C(=O)O)C2)c1csc2ccn(Cc3ccc(-c4cncc(F)c4)cc3)c12 (centres unmarked) [Example 100, 6-(4-(4-(5-fluoropyridin-3-yl)benzyl)-4H-thieno[3,2-b]pyrrole-3-carboxamido)spiro[3.3]heptane-2-carboxylic acid] | 500 to 5000 | < 500 |
| O=C(NC1CC2(C1)CC(C(=O)O)C2)c1csc2ccn(Cc3ccc(-c4cccc(F)c4)cc3)c12 (centres unmarked) [Example 92, 6-(4-((3′-fluoro-[1,1′-biphenyl]-4-yl)methyl)-4H-thieno[3,2-b]pyrrole-3-carboxamido)spiro[3.3]heptane-2-carboxylic acid] | < 500 | < 500 |
| Cc1sc(C)c(C(=O)NC2CC3(C2)CC(C(=O)O)C3)c1Cn1cc(-c2ccccc2)cn1 (centres unmarked) [Example 78, 6-(2,5-dimethyl-4-((4-phenyl-1H-pyrazol-1-yl)methyl)thiophene-3-carboxamido)spiro[3.3]heptane-2-carboxylic acid] | > 10000 | 5000 to 10000 |
| Cn1cc(-c2ccc(Cn3ccc4scc(C(=O)NC5CC6(C5)CC(C(=O)O)C6)c43)cc2)cn1 (centres unmarked) [Example 102, 6-(4-(4-(1-methyl-1H-pyrazol-4-yl)benzyl)-4H-thieno[3,2-b]pyrrole-3-carboxamido)spiro[3.3]heptane-2-carboxylic acid] | > 10000 | < 500 |
| Cc1sc(C)c(C(=O)NC2CC3(C2)CC(C(=O)O)C3)c1Cc1ccccc1-c1ccccc1 (centres unmarked) [Example 4, 6-(4-([1,1′-biphenyl]-2-ylmethyl)-2,5-dimethylthiophene-3-carboxamido)spiro[3.3]heptane-2-carboxylic acid] | > 10000 | > 10000 |
| Cc1sc(C)c(C(=O)NC2CC3(C2)CC(C(=O)O)C3)c1Cc1ccc(-c2ccc(S(C)(=O)=O)cc2)cc1 (centres unmarked) [Example 35, 6-(2,5-dimethyl-4-((4′-(methylsulfonyl)-[1,1′-biphenyl]-4-yl)methyl)thiophene-3-carboxamido)spiro[3.3]heptane-2-carboxylic acid] | > 10000 | 5000 to 10000 |
| COc1ccnc(-c2ccc(Cn3ccc4scc(C(=O)NC5CC6(C5)CC(C(=O)O)C6)c43)cc2)c1 (centres unmarked) [Example 109, 6-(4-(4-(4-methoxypyridin-2-yl)benzyl)-4H-thieno[3,2-b]pyrrole-3-carboxamido)spiro[3.3]heptane-2-carboxylic acid] | 500 to 5000 | < 500 |
| O=C(NC1CC2(C1)CC(C(=O)O)C2)c1csc2ccn(Cc3ccc4c(ccn4Cc4ccccc4)c3)c12 (centres unmarked) [Example 103, 6-(4-((1-benzyl-IH-indol-5-yl)methyl)-4H-thieno[3,2-b]pyrrole-3-carboxamido)spiro[3.3]heptane-2-carboxylic acid] | > 10000 | < 500 |
| Cc1sc(C)c(C(=O)NC2CC3(C2)CC(C(=O)O)C3)c1Cc1ccc(-c2cc(F)cc(C#N)c2)cc1 (centres unmarked) [Example 70, 6-(4-((3′-cyano-5′-fluoro-[1,1′-biphenyl]-4-yl)methyl)-2,5-dimethylthiophene-3-carboxamido)spiro[3.3]heptane-2-carboxylic acid] | 5000 to 10000 | < 500 |
| Cc1sc(C)c(C(=O)NC2CC3(C2)CC(C(=O)O)C3)c1Cc1ccc(-c2ccncc2)cc1 (centres unmarked) [Example 26, 6-(2,5-dimethyl-4-(4-(pyridin-4-yl)benzyl)thiophene-3-carboxamido)spiro[3.3]heptane-2-carboxylic acid] | > 10000 | 500 to 5000 |
| O=C(NC1CC2(C1)CC(C(=O)O)C2)c1csc(Br)c1Cc1ccc(-c2ccccc2)cc1 (centres unmarked) [Example 15, 6-(4-([1,1′-biphenyl]-4-ylmethyl)-5-bromothiophene-3-carboxamido)spiro[3.3]heptane-2-carboxylic acid] | < 500 | < 500 |
| Cc1sc(C)c(C(=O)NC2CC3(C2)CC(C(=O)O)C3)c1Cc1ccc(-c2ccccc2F)cc1 (centres unmarked) [Example 49, 6-(4-((2′-fluoro-[1,1′-biphenyl]-4-yl)methyl)-2,5-dimethylthiophene-3-carboxamido)spiro[3.3]heptane-2-carboxylic acid] | > 10000 | > 10000 |
| Cc1sc(C)c(C(=O)NC2CC3(C2)CC(C(=O)O)C3)c1Nc1ccc(-c2ccccc2)cc1 (centres unmarked) [Example 75, 6-(4-([1,1′-biphenyl]-4-ylamino)-2,5-dimethylthiophene-3-carboxamido)spiro[3.3]heptane-2-carboxylic acid] | > 10000 | > 10000 |
